The values below are quoted from earlier work in patent US9526741B2, “Chemosensory receptor ligand-based therapies” (NaZura BioHealth, Inc., priority 2009, dated 2016).

The test system of the series is GLP-1. The following applies: humans.

Take `OCCN1C[C@H](O)[C@@H](O)[C@H](O)[C@H]1CO` [miglitol]: the “postprandial GLP-1 levels” value is on record as “increase”.
